Structures can show the parent of a compound that is named as a salt. Where two headings read alike, the source gives them in different places.
Legend:
[1] = target: T1, hNMNAT-1 (Homo sapiens, UniProt Q9HAN9); test: NMN adenylyltransferase activity assay (pyrophosphatase-coupled, malachite green), hNMNAT-1; format: biochemical; set-up: key to mode of inhibition (in brackets) towards NMN, hNMNAT-1 / mode of inhibition (in brackets) towards ATP, hNMNAT-1: M, mixed inhibition; C, competitive; U, uncompetitive; conditions: for Ki: inhibitor 30 and 90 µM, ± std. error, αKi in the case of uncompetitive inhibition
T1 construct: made in house
T1 sequence (Q9HAN9 whole entry): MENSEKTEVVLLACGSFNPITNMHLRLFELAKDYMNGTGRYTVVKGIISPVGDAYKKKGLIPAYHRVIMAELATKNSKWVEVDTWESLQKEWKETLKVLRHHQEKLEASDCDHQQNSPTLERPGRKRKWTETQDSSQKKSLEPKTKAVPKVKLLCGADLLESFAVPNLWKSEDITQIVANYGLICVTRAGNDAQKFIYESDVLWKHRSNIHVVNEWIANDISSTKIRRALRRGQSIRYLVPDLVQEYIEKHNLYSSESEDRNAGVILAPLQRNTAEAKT
From the text: (§1) The reaction catalyzed by NMN adenylyltransferase can be represented as NMN + ATP (NAD + PPi). To avoid interference of methyl NAD analogues with NAD-based detection assays, we used a “pyrophosphate-dependent” coupled assay that couples NMNAT activity with inorganic pyrophosphatase (PPase) that hydrolyzes PPi into two molecules of inorganic phosphate (Pi). Phosphate was quantified using a malachite green dye as described. Enzyme purification procedures followed previous reports. The reactions were carried out using a 96-well microplate assay format at room temperature in a total volume of 50 µL per well. The reaction mixtures contained 100 mM Hepes, pH 7.5, 10 mM MgCl2, 0.1 mg/mL bovine serum albumin, and an excess of 4 U/mL of inorganic pyrophosphatase. The hNMNAT concentration, ranging from 3 to 15 nM, was adjusted in different tests to ensure initial velocity conditions (5–10% substrate depletion) while retaining a linear response. An amount of 100 µL of the malachite green reagent was added to each well to stop the reactions. Following a 20–30 min incubation period, the molybdate in the reagent formed a complex with the free phosphate, resulting in full-color development. The phosphate concentration was then quantified by measuring the absorbance at 620 nm using a microplate reader (Biotek Synergy HT) and interpolating these values against a pre-established standard curve. Absorbance from control reactions performed in the absence of hNMNAT were subtracted from absorbances of the respective reactions with the enzyme to account for background hydrolysis. Details for substrate and inhibitor concentration range are given below and in the legend of Figure 2. Assays with the inhibitors were carried out in triplicate, and the percentage of inhibition at each concentration was calculated for the initial screening at 0.5 mM.
(§2) Values for inhibition constant Ki and α were determined by fitting the data to the rate equation for general mixed model inhibition: V = VmaxS/[Km(1 + I/Ki) + S(1 + I/[…])] using GraphPad Prism software version 7.05, where Vmax and Km are the classic Michaelis–Menten parameters, Ki is the equilibrium dissociation constant for the enzyme-inhibitor complex, S and I are the substrate and the inhibitor concentration, respectively. This model includes competitive, uncompetitive, and noncompetitive inhibition as special cases that the α values can diagnose. Further mechanistic insights into the mode of inhibition were drawn by graphical inspection of the Lineaweaver–Burk plots.

[2] = target: T2, hNMNAT-3 (Homo sapiens, UniProt Q96T66); test: NMN adenylyltransferase activity assay (pyrophosphatase-coupled, malachite green), hNMNAT-3; format: biochemical; set-up: key to mode of inhibition (in brackets) towards NMN, hNMNAT-3 / mode of inhibition (in brackets) towards ATP, hNMNAT-3: M, mixed inhibition; C, competitive; U, uncompetitive; conditions: for enzyme inhibition in the initial screening, hNMNAT-3: fixed concentration of 0.5 mM inhibitor; for Ki: inhibitor 30 and 90 µM, ± std. error, αKi in the case of uncompetitive inhibition
T2 construct: made in house
T2 sequence (Q96T66 whole entry): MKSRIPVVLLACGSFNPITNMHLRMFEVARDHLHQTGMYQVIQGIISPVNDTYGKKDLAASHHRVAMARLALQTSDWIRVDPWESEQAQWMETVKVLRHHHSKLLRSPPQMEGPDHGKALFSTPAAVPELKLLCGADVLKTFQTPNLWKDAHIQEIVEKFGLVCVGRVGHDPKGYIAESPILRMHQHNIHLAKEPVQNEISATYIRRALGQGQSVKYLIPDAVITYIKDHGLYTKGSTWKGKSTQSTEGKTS
From the text: as §1, §2

[3] = target: T3, hNMNAT-2 (Homo sapiens, UniProt Q9BZQ4); test: NMN adenylyltransferase activity assay (pyrophosphatase-coupled, malachite green), hNMNAT-2; format: biochemical; set-up: key to mode of inhibition (in brackets) towards NMN, hNMNAT-2 / mode of inhibition (in brackets) towards ATP, hNMNAT-2: M, mixed inhibition; C, competitive; U, uncompetitive; conditions: for enzyme inhibition in the initial screening, hNMNAT-2: fixed concentration of 0.5 mM inhibitor; for Ki: inhibitor 30 and 90 µM, ± std. error, αKi in the case of uncompetitive inhibition
T3 construct: made in house
T3 sequence (Q9BZQ4 whole entry): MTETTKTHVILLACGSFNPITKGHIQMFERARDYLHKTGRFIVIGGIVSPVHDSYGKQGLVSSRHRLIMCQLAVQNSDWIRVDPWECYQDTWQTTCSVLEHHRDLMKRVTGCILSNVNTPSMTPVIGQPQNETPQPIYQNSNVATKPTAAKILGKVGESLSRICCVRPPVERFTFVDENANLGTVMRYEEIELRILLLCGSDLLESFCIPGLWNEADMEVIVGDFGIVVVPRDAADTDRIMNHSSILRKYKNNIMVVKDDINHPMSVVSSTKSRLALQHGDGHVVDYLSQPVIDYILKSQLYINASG
From the text: as §1, §2

[4] = target: T2, hNMNAT-3; set-up: method as in PMID 16118205, PMID 18336280; conditions: most sensitive isoform; cited from earlier work
[5] = fixed concentration of 0.5 mM inhibitor
[6] = ATP varied, NMN fixed (0.5 mM), read-out: Ki towards ATP, hNMNAT-2
[7] = NMN varied, ATP fixed (0.5 mM), read-out: Ki towards NMN, hNMNAT-2
[8] = steady-state kinetic analysis, versus ATP

SMILES: C[C@@]1(O)[C@H](O)[C@@H](COP(=O)(O)O)O[C@H]1n1cnc2c(N)ncnc21 [2′-MeAMP (5), 9H-(2′-C-Methyl-β-D-ribofuranosyl)adenine-5′-monophosphate Tributyl Ammonium Salt]
- enzyme inhibition in the initial screening, hNMNAT-1 [1, 5]: absence of inhibition
- enzyme inhibition in the initial screening, hNMNAT-3 [2]: absence of inhibition
- enzyme inhibition in the initial screening, hNMNAT-2 [3]: absence of inhibition

SMILES: C[C@@]1(O)[C@H](O)[C@@H](COP(=O)([O-])OP(=O)(O)OC[C@H]2O[C@@H]([n+]3cccc(C(N)=O)c3)[C@H](O)[C@@H]2O)O[C@H]1n1cnc2c(N)ncnc21 [2′-MeNAD (1), P^1-[5′-(2′-C-Methyl-β-D-ribofuranosyl)adenine]-P^2-[5′-(β-D-ribofuranosyl)nicotinamide] Pyrophosphate]
- inhibition at 500 µM ([1]; fixed concentration of 0.5 mM inhibitor, read-out: enzyme inhibition in the initial screening, hNMNAT-1): < 50%
- mode of inhibition (in brackets) towards ATP, hNMNAT-2 ([3]; ATP varied): M
- Ki [3, 6]: 21 ± 3 µM
- mode of inhibition (in brackets) towards NMN, hNMNAT-2 ([3]; NMN varied): M
- Ki [3, 7]: 15 ± 3 µM
- mode of inhibition (in words), hNMNAT-2 ([3]; steady-state kinetic analysis): mixed-type inhibition with a strong non-competitive character

SMILES: C[C@@]1(O)[C@H](O)[C@@H](COP(=O)([O-])OP(=O)(O)OC[C@H]2O[C@@H]([n+]3cccc(C(=O)O)c3)[C@H](O)[C@@H]2O)O[C@H]1n1cnc2c(N)ncnc21 [2′-MeNaAD (3), P^1-[5′-(2′-C-Methyl-β-D-ribofuranosyl)adenine]-P^2-[5′-(β-D-ribofuranosyl)nicotinic acid] Pyrophospshate]
- mode of inhibition (in brackets) towards ATP, hNMNAT-1 ([1]; ATP varied): U
- Ki ([1]; ATP varied, NMN fixed (0.5 mM), read-out: Ki towards ATP, hNMNAT-1): 82 ± 14 µM
- mode of inhibition (in brackets) towards NMN, hNMNAT-1 ([1]; NMN varied): C
- Ki ([1]; NMN varied, ATP fixed (0.5 mM), read-out: Ki towards NMN, hNMNAT-1): 168 ± 19 µM
- mode of inhibition versus ATP (in words), hNMNAT-1 [1, 8]: uncompetitive character
- mode of inhibition (in brackets) towards ATP, hNMNAT-3 ([2]; ATP varied): C
- Ki ([2]; ATP varied, NMN fixed (0.5 mM), read-out: Ki towards ATP, hNMNAT-3): 223 ± 22 µM
- mode of inhibition (in brackets) towards NMN, hNMNAT-3 ([2]; NMN varied): C
- Ki ([2]; NMN varied, ATP fixed (0.5 mM), read-out: Ki towards NMN, hNMNAT-3): 224 ± 17 µM
- mode of inhibition (in brackets) towards ATP, hNMNAT-2 ([3]; ATP varied): U
- Ki [3, 6]: 41 ± 14 µM
- mode of inhibition (in brackets) towards NMN, hNMNAT-2 ([3]; NMN varied): M
- Ki [3, 7]: 60 ± 18 µM
- mode of inhibition versus ATP (in words), hNMNAT-2 [3, 8]: uncompetitive character

SMILES: C[C@@]1(O)[C@@H](COP(=O)(O)O)O[C@@H](n2cnc3c(N)ncnc32)[C@@H]1O [3′-MeAMP (6), 9H-(3′-C-Methyl-β-D-ribofuranosyl)adenine-5′-monophosphate Tributyl Ammonium Salt]
- enzyme inhibition in the initial screening, hNMNAT-1 [1, 5]: absence of inhibition
- enzyme inhibition in the initial screening, hNMNAT-3 [2]: absence of inhibition
- enzyme inhibition in the initial screening, hNMNAT-2 [3]: absence of inhibition

SMILES: C[C@@]1(O)[C@H](O)[C@@H](CO)O[C@H]1n1cnc2c(N)ncnc21 [Compound 11, 2′-MeAdo]
- enzyme inhibition in the initial screening, hNMNAT-1 [1, 5]: absence of inhibition
- enzyme inhibition in the initial screening, hNMNAT-3 [2]: absence of inhibition
- enzyme inhibition in the initial screening, hNMNAT-2 [3]: absence of inhibition

SMILES: C[C@@]1(O)[C@@H](CO)O[C@@H](n2cnc3c(N)ncnc32)[C@@H]1O [Compound 12, 3′-MeAdo]
- enzyme inhibition in the initial screening, hNMNAT-1 [1, 5]: absence of inhibition
- enzyme inhibition in the initial screening, hNMNAT-3 [2]: absence of inhibition
- enzyme inhibition in the initial screening, hNMNAT-2 [3]: absence of inhibition

SMILES: O=C(OC[C@H]1O[C@@H](OC(=O)c2cc(O)c(O)c(OC(=O)c3cc(O)c(O)c(O)c3)c2)[C@H](OC(=O)c2cc(O)c(O)c(OC(=O)c3cc(O)c(O)c(O)c3)c2)[C@@H](OC(=O)c2cc(O)c(O)c(OC(=O)c3cc(O)c(O)c(O)c3)c2)[C@@H]1OC(=O)c1cc(O)c(O)c(OC(=O)c2cc(O)c(O)c(O)c2)c1)c1cc(O)c(O)c(OC(=O)c2cc(O)c(O)c(O)c2)c1 [Gallotannin]
- IC50 [4]: 2000 nM

Reference: paper PMC11207052, “Synthesis, Biological, and Computational Evaluations of Conformationally Restricted NAD-Mimics as Discriminant Inhibitors of Human NMN-Adenylyltransferase Isozymes” (Pharmaceuticals, 2024)
